How the values were obtained:
[1] = Relative inhibition of PDE1 and PDE5
Phosphodiesterase 1 = Phosphodiesterase 1 (Bos taurus, UniProt Q01061+P14100); experiment: Inhibition of phosphodiesterase 1 from bovine heart; format: protein assay
[2] = molecular target: Phosphodiesterase 3 (Oryctolagus cuniculus); experiment: Inhibition of phosphodiesterase 3 from rabbit platelets
[3] = Relative inhibition of PDE6 and PDE5
Phosphodiesterase 6 = experiment: Inhibition of phosphodiesterase 6 from bovine retina; format: protein assay, Bos taurus
[4] = test system: Phosphodiesterase 3 and 5 (Oryctolagus cuniculus); experiment: Relative inhibition of PDE3 and PDE5

For `CCCOc1ccc(S(=O)(=O)N2CCC(CP(=O)(O)OCC)CC2)cc1-c1nc2c(CCC)nn(C)c2c(=O)[nH]1`, the IC50 ratio [1] was 918, the IC50 (Phosphodiesterase 1) was 156 nM and the IC50 [2] was 2600 nM. For the same compound, the IC50 ratio [3] was 15, the IC50 (Phosphodiesterase 6) was 2.58 nM and the IC50 ratio [4] was > 15000.

From ChEMBL document CHEMBL1147542 (Bioorg Med Chem Lett, 2004)
